Reference: US6762200B2, “Oxa(thia)zolidine derivative and anti-inflammatory drug” (Nippon Soda Co. Ltd., priority 2000, dated 2004)

What was measured:
IV-cPLA(2) = molecular target: T1, IV-cPLA(2) (Homo sapiens, UniProt P47712); assay: PLA(2) activity, hydrolysis of bis-BODIPY FL C11-PC in activated U937 cells; assay type: cell-based; settings: for inhibition at 0.1 µM: U-937, 0.1 μM
T1 sequence (P47712 1-749): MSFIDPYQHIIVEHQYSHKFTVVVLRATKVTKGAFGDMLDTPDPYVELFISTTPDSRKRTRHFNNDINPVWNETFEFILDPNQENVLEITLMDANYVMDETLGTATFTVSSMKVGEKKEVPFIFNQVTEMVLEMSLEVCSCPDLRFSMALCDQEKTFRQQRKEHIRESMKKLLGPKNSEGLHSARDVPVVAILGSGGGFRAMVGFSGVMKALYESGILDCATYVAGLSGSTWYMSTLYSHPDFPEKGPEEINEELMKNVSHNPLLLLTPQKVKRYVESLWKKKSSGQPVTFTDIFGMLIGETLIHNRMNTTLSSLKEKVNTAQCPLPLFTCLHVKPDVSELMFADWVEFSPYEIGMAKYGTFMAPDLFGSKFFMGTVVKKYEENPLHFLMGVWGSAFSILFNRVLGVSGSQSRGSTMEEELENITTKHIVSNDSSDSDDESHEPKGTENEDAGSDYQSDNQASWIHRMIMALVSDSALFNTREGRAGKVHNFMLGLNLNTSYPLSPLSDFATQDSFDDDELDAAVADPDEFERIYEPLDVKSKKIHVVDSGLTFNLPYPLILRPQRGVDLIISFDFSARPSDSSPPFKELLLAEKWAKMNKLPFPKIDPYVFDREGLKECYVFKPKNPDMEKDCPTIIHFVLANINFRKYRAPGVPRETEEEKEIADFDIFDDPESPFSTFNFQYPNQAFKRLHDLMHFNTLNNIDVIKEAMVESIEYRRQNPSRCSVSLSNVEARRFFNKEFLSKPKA
Procedure: The PLA(2) activity was measured by quantitatively analyzing the fluorescent product of hydrolysis from 1,2-bis-(4,4-difluoro-5,7-dimethyl-4-bora-3a,4a-diaza-s-indecene-3-undecanoyl)-sn-glycero-3-phosphocholine (hereinafter referred to bis-BODIPY®FL C11—PC, Molecular Probes, Inc., B-7701) using activated U937 cells (human monoblastic lymphoma cell line) by inflammatory stimulus (Meshulam, T. et al., The journal of Biological Chemistry 267 (30): 21465-21470 (1992); and Solito, E. et al., British Journal of Pharmacology 124: 1675-1683 (1998).). The substrate bis-BODIPY®FL C11—PC is incorporated into cellular membranes, the proximity of the BODIPY FL fluorophores on adjacent phospholipid acyl chains causes fluorescence self-quenching. Separation of the fluorophores upon hydrolytic cleavage of one of the acyl chains by PLA(1) or the PLA(2) results in increased fluorescence. In the activated U937 by inflammatory stimulus, it is shown that this substrate should be cleaved enzymatically by IV-cPLA(2) from the feature of its behaviors including sensitivity profiles against the inhibitors.
The human cell line U937 was purchased from Dai-Nippon Pharmaceuticals Co., Ltd. The cells were maintained by transferring every 3-4 days into RPMI 1640 medium (Sigma Chemical Co., R6504) supplemented with heat-inactivated 10% fetal bovine serum (Fetal Bovine Serum, Sigma Chemical Co., F 4135) in a 5% CO2 humidified atmosphere at 37° C. The cells were transferred into the culture medium described above, containing 1.2% (v/v) dimethylsulfoxide (hereinafter referred to as […], Nacalai tesque Co., Ltd., D 134-45), and pre-cultured for 96 to 120 hours so as to differentiate into the macrophage-like cells to be provided for the assay. The macrophage-like cells were collected and washed by centrifugation with the Assay medium (Dulbecco's phosphate buffered saline (hereinafter referred to as PBS)-2.2 mM glucose-2.5 μm albumin). Then, Phorbol 12-Myristate 13-Acetate (hereinafter referred to as TPA, Sigma Chemical Co., P 8139) was added to the Assay medium to be 1×10^−8M as the final concentration. Then, the macrophage-like cells were further cultured for an hour to be activated (Rzigalinski, B. A. & Rosenthal, M. D., Biochimica et Biophysica Acta 1223: 219-225 (1994); and Gonchar, M. V. et al., Biochemical and Biophysical Research Communication, 249: 829-832 (1998).).
For preparing substrate liposome suspension, bis-BODIPY®FL C11—PC was combined with phosphatidylcholine (Sigma Chemical Co., P 7769) at 1:9 molar ratio in chloroform, and dried under nitrogen flow. The dried mixture was suspended with the Assay medium at 100 μg/mL, voltexed and sonicated for an hour on ice under dark condition.
The test compound was dissolved with DMSO at 30 mM, and the solution diluted with either DMSO or the Assay medium before addition into the reaction mixture. The DMSO concentration in the reaction mixture was controlled so as to be no more than 0.1%. The 30-fold concentration of test compound solution was put into each well of MICRPTEST™ Tissue Culture Plate, 96 Well (Falcon, 3072) at a rate of 2.5 μL/well. To the respective well was added 25 μL/well of the activated U937 cell suspension ([…]), and the cells were pre-cultured for 120 min. at 37° C. in a 5% CO2 atmosphere incubator. 47.5 μL/well of the substrate liposome suspension with 1.5×10^−6M A23187 (Sigma Chemical Co., C 7522) was added into each well to prepare 75 μL/well of the total reaction mixture, followed by culture for 30 min. under the same conditions with shielding against light. 100 μL/well of 0.1% GEDTA (Dojindo Laboratories Co. Ltd., 348-01311) methanol solution was added into each well and mixed to stop the reaction. […]

TPA-induced ear edema = assay type: in vivo, ICR-strain male mouse; settings: topical, 0.3 mg/20 μL/ear × 2; 6 hours after TPA
Procedure: This test was carried out referring to the method of Carlson, R. P. et al. (Agents and Actions, 17(2): 197-204 (1985).) and the method of Chang, J. (European Journal of Pharmacology, 142: 197-205 (1987).). […] 6 hours later, the thickness of each ear at the particular part was respectively measured three times using a digimatic micrometer to calculate the mean value. Ear edema was determined by subtracting the mean thickness of the left ear as without treatment from that of the right ear as TPA-applied. […] As the positive control, 100 mg/kg of Hydrocortisone (Sigma Chemical Co., H 4001) suspension was applied to the mouse similarly as for the compound of the present invention.

[1] = system: acetic acid-induced writhes; assay: Acetic acid writhing; assay type: in vivo, ICR-strain male mouse; settings: i.p., 10 to 20 min after acetic acid
Procedure: This test was carried out referring to the method of Inoue, K., Motonaga, A. & Nishimura, T (Arzneimittel Forshung/Drug Research, 41 (1): 235-239 (1991)). More specifically, 7.5 mL/kg of 0.9% acetic acid solution was injected intraperitoneally into an ICR-strain male mouse (5 to 7 weeks old), and the induced writhes (characteristic behaviors of convulsive contracting the abdomen, twisting the body and/or extending the legs) were observed. Number of writhes of each mouse was measured during 10 to 20 min. period after acetic acid administration. The compound of the present invention was homogeneously suspended in 2% Tween 80/saline for injection use, and was injected intraperitoneally 30 min. before the induction by the acetic acid injection. Alternatively, the compound of the present invention was homogeneously suspended in 2% Tween 80/distilled water, and was administrated orally two hours before the induction by the acetic acid injection. The analgesic activity of the compounds according to the present invention was evaluated on the basis of the degree of inhibiting the number writhes by the administration of the compounds. As the positive control, indomethacin or aspirin was administrated. The analgesic activity of the compounds according to the present invention measured in this test were exemplified in Table 7.

| Structure (SMILES) | Inhibition (%) (IV-cPLA(2); 0.1 μM) | Inhibition (%) (IV-cPLA(2); 0.01 μM) | melting point [°C] | inhibition at 0.1 µM (IV-cPLA(2)) [%] | Ear Edema Inhibition (%) (TPA-induced ear edema) | Number of writhes (Mean ± S.E.) ([1]; 1 mg/kg) | Number of writhes (Mean ± S.E.) ([1]; 0.3 mg/kg) |
| --- | --- | --- | --- | --- | --- | --- | --- |
| C[C@@H]1NC(=N[N+](=O)[O-])O[C@H]1c1ccc(Cl)cc1 (relative stereo) [Compound 1-10, trans-5-(4-chlorophenyl)-4-methyl-2-nitroiminooxazolidine] |  |  | 123 to 126 | 79 |  |  |  |
| C[C@H]1[C@H](c2ccc(Cl)cc2)OC(=N[N+](=O)[O-])N1Cc1ccc(Cl)nc1 (relative stereo) [Compound 1-12, trans-5-(4-chlorophenyl)-4-methyl-3-(2-chloro-5-pyridylmethyl)-2-nitroiminooxazolidine] |  |  |  | 52 | 79 | 10.0 ± 1.1 |  |
| CN=C1OC(c2ccc(C)cc2)C(C)N1C(=O)NC1CCCCO1 (centres unmarked) [Compound 1-22] | 84 |  |  |  | 56 | 12.7 ± 4.1 |  |

More lines, main results first:

| Inhibition (%) (IV-cPLA(2); 0.1 μM) | Inhibition (%) (IV-cPLA(2); 0.01 μM) | Structure (SMILES) | melting point [°C] | inhibition at 0.1 µM (IV-cPLA(2)) [%] | Ear Edema Inhibition (%) (TPA-induced ear edema) | Number of writhes (Mean ± S.E.) ([1]; 1 mg/kg) | Number of writhes (Mean ± S.E.) ([1]; 0.3 mg/kg) |
| --- | --- | --- | --- | --- | --- | --- | --- |
| 77 |  | CCOC(=O)CCC(NC(=O)N1C(=O)SC(c2ccc(Cl)cc2)C1C)C(=O)OCC (centres unmarked) [Compound 2-26] |  |  | 86 |  | 9.8 ± 1.9 |
|  | 64 | COC1CCCC(NC(=O)N2C(=O)OC(c3ccc4c(c3)CCCC4)C2C)O1 (centres unmarked) [Compound 2-135] |  |  | 84 | 0.8 ± 0.8 |  |
|  | 86 | Cc1ccc(C2SC(=O)N(C(=O)NC3CCCCO3)C2C)cc1 (centres unmarked) [Compound 2-189] |  |  | 84 | 0.8 ± 0.5 |  |
